Source: patent US20120171123A1, “USES AND COMPOSITIONS FOR TREATMENT OF RHEUMATOID ARTHRITIS” (priority 2006, published 2012)

How the values were obtained:
[1] = test system: MTX-naïve adult patients with active, early RA (<3 years); test: Study J: CRP normalization; format: in vivo, human; conditions: for Patient numbers: CRP Abnormal at Baseline, Abnormal at 1 Year / Patient numbers: CRP Normal at Baseline, Abnormal at 1 Year: Abnormal CRP >0.8 mg/dL; for Patient numbers: CRP Abnormal at Baseline, Normal at 1 Year / Patient numbers: CRP Normal at Baseline, Normal at 1 Year: Normal CRP ≦0.8 mg/dL
Procedure: Baseline demographics and clinical characteristics of the patients enrolled in this study are described in Example 7. […] After 1 and 2 years of therapy, the percentages of patients with ACR90 responses, TJC=0, SJC=0, HAQ=0, morning stiffness=0 minutes, and normal CRP were determined. Data are from the intention-to-treat (ITT) population with imputation used for missing values. Results were compared with the percentages of patients who achieved DAS28<2.6 or a Major Clinical Response (MCR).
Radiographic progression was assessed by mean change from baseline in Total Sharp Score (TSS) and stratified into those with (ΔTSS>0.5) and without (Δ≦TSS 0.5). Patients were categorized as either having radiographic progression at 1 year (ΔTSS>0.5) or not (Δ≦TSS 0.5). A logistic regression model was used to identify predictors of radiographic disease progression by testing several baseline characteristics, including age, disease duration, RF status, TJC, SJC, joint erosions, and CRP. For analyses of CRP, patients were categorized as normal (CRP≦0.8 mg/dL) or abnormal (CRP>0.8 mg/dL).

[2] = test system: patients with long-standing RA; test: Study I open-label extension: HAQ; format: in vivo, human; conditions: 5 years
Procedure: (§1) Demographic data, age, gender, disease duration, rheumatoid factor and changes in TJC, SJC, CRP, DAS28, HAQ and ACR responses were analysed. Baseline demographics and disease characteristics as well as efficacy measures at last visit (ACR 20/50/70, DAS28, HAQ) were compared between the groups. All patients, including those who discontinued from the trial, were evaluated
(§2) Patients were eligible to enroll in Study I if they met ACR criteria for diagnosis of RA. […] Efficacy outcomes were assessed at pre-specified intervals as observed data. Treatment time was calculated beginning with the first subcutaneous injection of adalimumab at any dose, excluding time on placebo. Improvements in signs and symptoms of RA were evaluated for ACR20, ACR50, and ACR70 criteria, 28-joint count Disease Activity Score (DAS28) using the CRP-based formula, and Health Assessment Questionnaire (HAQ). Patients with changes in dosage of MTX or corticosteroids were evaluated for at least 6 months; these patients were eligible for the extension study for at least 6 months and were eligible for discretionary dose tapering. Patients were monitored for adverse events (AEs) during the entire length of the study, from signed informed consent through last visit.

[3] = test system: patients with active rheumatoid arthritis; conditions: Study A (N=2008), 12 weeks; cited from earlier work
[4] = test system: patients with RA who had failed prior treatment with infliximab; test: Adalimumab after failed infliximab: HAQ; format: in vivo, human
From the text: Patients eligible to participate in the study included those with long-standing, moderate to severe RA who had terminated infliximab therapy because of lack or loss of efficacy and/or intolerance/side effects. […] Follow-up visits for safety and efficacy monitoring were scheduled at 2, 8, and 16 weeks. […] Efficacy parameters included TJC28 and SJC28; DAS28; ACR20, ACR50 Response; Moderate EULAR response; and HAQ. Subgroup analysis by reason for discontinuation included: • in case of discontinuation due to lack or loss of efficacy, patients were counted in the corresponding group regardless of additional cause of intolerance. • The subgroup “Discontinuation due to intolerance” was exclusive.

[5] = test system: patients with long-standing RA; test: Study I open-label extension: DAS28 and clinical remission; format: in vivo, human; conditions: for patients in clinical remission (DAS28<2.6) / mean change from baseline in DAS28: last visit
Procedure: (§3) 217 patients who completed the blinded period and participated in the extension trial for a minimum of 6 months were allowed to adjust MTX and/or corticosteroid dosages at the discretion of the principal investigators. Dose tapering was conducted according to standard medical practice with respect to controlling disease activity
as §1, §2

[6] = test system: patients with long-standing RA; test: Study I open-label extension (adalimumab 40 mg eow + MTX): ACR response; format: in vivo, human; conditions: 5 years, observed
Procedure: as §3, §1, §2

[7] = test system: patients with long-standing RA; test: Study 4: CRP; format: in vivo, human
From the text: Percentage change of mean clinical improvement from baseline us describe in Table 15 below.

[8] = test system: patients with active rheumatoid arthritis; conditions: Study A (N=2008), 12 weeks; cited from earlier work; remark: listed apart in the source
[9] = test system: patients with active rheumatoid arthritis; conditions: Study A (N=2008), 12 weeks; cited from earlier work; remark: listed apart in the source
[10] = test system: MTX-naïve adult patients with active, early RA (<3 years); conditions: human, in vivo

adalimumab: human anti-TNF mAb (HUMIRA, Abbott Laboratories), described in U.S. Pat. No. 6,090,382 as D2E7
Normal CRP (≦0.8 mg/dL) ([1]; 1 year): 34 % patients | patients with abnormal baseline CRP that became normal ([1]; 1 year, listed as Adalimumab Alone): 52% (n = 150) | Normal CRP (≦0.8 mg/dL) ([1]; 2 years): 34 % patients | Patient numbers: CRP Abnormal at Baseline, Abnormal at 1 Year [1]: 72 | Patient numbers: CRP Normal at Baseline, Abnormal at 1 Year [1]: 4 | Patient numbers: CRP Abnormal at Baseline, Normal at 1 Year [1]: 78 | Patient numbers: CRP Normal at Baseline, Normal at 1 Year [1]: 33 | patients with no physical limitations (HAQ=0) [2]: 28% | DAS28 (mean), change from baseline [3]: −2.1 | change in HAQ ([4]; week 16, all (n=37)): −0.25 | change in HAQ ([4]; week 16, infliximab stopped for intolerance (n=5)): −0.15 | change in HAQ ([4]; week 16, infliximab stopped for loss of response (n=19)): −0.36 | change in HAQ ([4]; week 16, infliximab stopped for no response (n=13)): −0.23 | patients with DAS28<2.6 ([5]; 5 years): 52% | patients in clinical remission (DAS28<2.6) ([5]; mtx and steroid decrease): 24% | mean change from baseline in DAS28 ([5]; mtx decrease): −2.7 | patients in clinical remission (DAS28<2.6) ([5]; mtx decrease): 7.2% | mean change from baseline in DAS28 ([5]; mtx increase): −1.7 | patients in clinical remission (DAS28<2.6) ([5]; mtx increase): 6.7% | mean change from baseline in DAS28 ([5]; mtx no change): −2.5 | patients in clinical remission (DAS28<2.6) ([5]; mtx no change): 15.5% | mean change from baseline in DAS28 ([5]; mtx+steroid decrease): −3.0 | mean change from baseline in DAS28 ([5]; steroid decrease): −2.9 | patients in clinical remission (DAS28<2.6) ([5]; steroid decrease): 21.6% | mean change from baseline in DAS28 ([5]; steroid no change): −2.5 | patients in clinical remission (DAS28<2.6) ([5]; steroid no change): 17.2% | ACR20 [6]: 76% | ACR50 [6]: 64% | ACR70 [6]: 39% | CRP, % change of mean clinical improvement from baseline ([7]; 6 months): 14% | CRP, % change of mean clinical improvement from baseline ([7]; 12 months): 33% | CRP, % change of mean clinical improvement from baseline ([7]; 24 months): 29% | CRP, % change of mean clinical improvement from baseline ([7]; 36 months): 28% | CRP, % change of mean clinical improvement from baseline ([7]; 48 months): 37% | HAQ (mean), change from baseline [8]: −0.49 | SJC (0-28), change from baseline, median [9]: −7 | TJC (0-28), change from baseline, median [9]: −10 | withdrawn, reason AE [10]: 11%

CN(Cc1cnc2nc(N)nc(N)c2n1)c1ccc(C(=O)N[C@@H](CCC(=O)O)C(=O)O)cc1 [mtx alone, methotrexate]
Normal CRP (≦0.8 mg/dL) ([1]; 1 year): 35 % patients | patients with abnormal baseline CRP that became normal ([1]; 1 year, listed as MTX Alone): 53% (n = 159) | patients with abnormal baseline CRP that became normal ([1]; 1 year, listed as MTX alone): 53% | Normal CRP (≦0.8 mg/dL) ([1]; 2 years): 29 % patients | Patient numbers: CRP Abnormal at Baseline, Abnormal at 1 Year [1]: 75 | Patient numbers: CRP Normal at Baseline, Abnormal at 1 Year [1]: 7 | Patient numbers: CRP Abnormal at Baseline, Normal at 1 Year [1]: 84 | Patient numbers: CRP Normal at Baseline, Normal at 1 Year [1]: 21
